The values that follow come from patent US20240325437A1, “METHODS AND COMPOSITIONS FOR USE IN IMPROVING ADAPTIVE IMMUNITY IN THE ELDERLY POPULATION” (Technion Research & Development Foundation Limited, priority 2023, published 2024).

For assay [1], the system named is CD3+ T cells derived from young mice. The assay can be described thus: Viability of young T cells cultured with heme or spleen extract (Zombie, flow cytometry). The settings on record: for viability of T cells: with and without agent. The assay is classed as cell-based, mouse. An excerpt: (§1) T cell isolation and culture. T cells were harvested from mice spleens and/or lymph nodes (inguinal, axillary, brachial, mandibular, and jejunal), and purified by magnetic separation. Depending on the specific experiment, either bulk CD3^+ T cells or bulk CD3^+CD4^+ T cells or pure naïve (CD3^+CD4^+CD62L^+ CD441^lo CD25^−) T cells were purified using commercially available kits (StemCell, 19765A, 19852A, 19851A), following the manufacturer instructions. The protocol for isolating pure naïve T cells from aged mice was modified, as additional antibodies were added to the initial antibody cocktail to overcome changes in T cell population composition in the aged. Specifically, biotinylated anti-mouse/human CD44 (BioLegend, IM7), and biotinylated anti-mouse CD25 (miltenyi 130-123-860, REA568), were added to the company's premade antibody cocktail for negative selection of lymphocytes. Furthermore, the present inventors performed a step of positive selection of CD62L^+ naïve T cells, using anti-mouse CD62L microbeads (miltenyi, 130-049-701) and magnetic columns (miltenyi, 130-042-201). Primary T cells were cultured at 37° C. and 5% CO2 in RPMI media, supplemented with: 10% FBS, 10 mM Hepes, penicillin/streptomycin, and 0.035% beta-mercaptoethanol. For activation, cells were cultured on plates pre-coated (overnight at 4° C.) with anti-CD3 (2 μg/mL; clone 145-2C11, BioXCell) and anti-CD28 (4 μg/mL, clone 37.51; BioXCell). Resting cells were supplemented with 5 ng/ml recombinant murine IL-7 (PEPROTECH, 217-17). In some experiments, cell cultures were supplemented with hemin chloride (cayman, 16487), ammonium iron (III) citrate (thermos scientific, A11199.30), BSA (Sigma-Aldrich, A9647), and spleen extract, at different concentrations, as indicated in relevant experiments.
Collection of a interstitial fluid-enriched fraction (referred to as spleen extract; SE). Spleens from young or aged mice were harvested, and gently dissociated ontop of a […] cell strainer, in 5 mL PBS or RPMI, 5 min centrifugation at 1350 RPM to separate the cellular pellet from the fluidic fraction, enriched with interstitial components.
(§2) Flow cytometry. […] Intracellular ferrous iron was measured using FerroOrange (Dojindo F374).
A general note: A flow cytometer gives signals particle by particle.

The subject of assay [2] is aged T cells. Put plainly: Proliferation of aged T cells activated ex vivo (CellTrace Violet). Conditions: for aged T cells proliferation: aged T cells activated ex vivo with and without agent. The class given is cell-based, mouse.
Description: as §1, §2

For assay [3], the system named is aged T cells. Put plainly: Survival of aged T cells ex vivo. The settings on record: aged T cells (not shown). The assay is classed as cell-based, mouse. The protocol:
(§3) Flow cytometry. For cell-surface staining, cultured T cells or freshly isolated T cells were resuspended in a separation buffer (PBS containing 2% FBS and 2 mM EDTA) and incubated for 20 min, on ice, with an antibody mix, supplemented purified anti-mouse CD16/32 (Biolegend, clone 93). For intracellular staining, True-Nuclear™ Transcription Factor Buffer Set (Biolegend, 424401) was used, following the manufacturer's protocol. […] Cell viability was assessed by Zombie violet or Zombie NIR™ Fixable Viability Kits (423114, 423105, biolegend). Cell proliferation was assessed by cell trace violet proliferation kit (C34557, Invitrogen). Lysosomal activity was determined using a lysosomal intracellular activity assay kit (ab234622) according to the manufacturer's instructions. Intracellular ferrous iron was measured using FerroOrange (Dojindo F374). Cells were incubated with […] of FerroOrange in HBSS at 37° C. for 40 minutes, and analyzed by flow cytometry. For Lysotracker staining, cells were incubated with 62.5 nM of lysotracker deep red (Invitrogen L12492) in HBSS at 37° C. for 40 minutes and analyzed by flow cytometry. All data were collected on the Attune NxT Flow Cytometer (Thermo Fisher) and analyzed using FlowJo (BD).

Assay [4] deals with CD3+ T cells derived from young mice. Put plainly: Proliferation of young T cells stimulated ex vivo with anti-CD3/anti-CD28 (cell trace violet). Conditions: with and without agent. The class given is cell-based, mouse.
Description: as §1, §2

The test system of assay [5] is aged T cells. The assay can be described thus: Labile iron (FerroOrange) in aged T cells. The class given is cell-based, mouse. As to the method:
as §2
Functional assays and intracellular ferrous iron staining. Intracellular ferrous iron was measured using FerroOrange (Dojindo, F374). […] All assays were analyzed by flow cytometry.

For assay [6], the system named is CD3+ T cells derived from the spleen of young and aged mice. Put plainly: Ferroptosis tolerance: viability of young and aged T cells treated with RSL. The assay is classed as cell-based, mouse. The settings on record: increasing doses of RSL, 48 hrs, young vs aged T cells; listed as RSL.
Description: T cell isolation and culture. T cells were harvested from mice spleens and/or lymph nodes (inguinal, axillary, brachial, mandibular, and jejunal), and purified by magnetic separation. Depending on the specific experiment, either bulk CD3^+ T cells or bulk CD3^+CD4^+ T cells or pure naïve (CD3^+CD4^+CD62L^+ CD441^lo CD25^−) T cells were purified using commercially available kits (StemCell, 19765A, 19852A, 19851A), following the manufacturer instructions. The protocol for isolating pure naïve T cells from aged mice was modified, as additional antibodies were added to the initial antibody cocktail to overcome changes in T cell population composition in the aged. Specifically, biotinylated anti-mouse/human CD44 (BioLegend, IM7), and biotinylated anti-mouse CD25 (miltenyi 130-123-860, REA568), were added to the company's premade antibody cocktail for negative selection of lymphocytes. Furthermore, the present inventors performed a step of positive selection of CD62L^+ naïve T cells, using anti-mouse CD62L microbeads (miltenyi, 130-049-701) and magnetic columns (miltenyi, 130-042-201). […]
as §2
Albumin is the most abundant heme binding protein in the serum. […] The present inventors hypothesized that the unique protein signature measured in aged T cells (FIG. 2H) allows them to survive this hostile microenvironment. […]

Assay [7] concerns CD4+ and CD8+ T cells derived from the aged spleen. Put plainly: Ferroptosis resistance to RSL3 of T cells from aged spleen after adoptive transfer. The class given is cell-based, mouse. Conditions: CD4+ vs CD8+ T cells from aged spleen, TdTomato+ and TdTomato−. The source says:
Adoptive T cell transfer. Young T cells were isolated from spleens of young OTII td-tomato transgenic mice (8-12 weeks-old) by magnetic isolation (StemCell), as described above. […] Two weeks following cell transfer, mice were euthanized and spleen and lymph nodes (inguinal, axillary, brachial, mandibular, and jejunal) were extracted for further analysis.
The present inventors hypothesized that ferroptosis resistance was accomplished by maintaining low cellular iron levels. To test this, FerroOrange was employed, a fluorescent probe that interacts with cellular ferrous ion (Fe^+2), to measure changes in labile iron in T cells following activation. In young T cells, labile iron pools increased as early as 9 hr post-activation and continued rising until 72 hrs (FIG. 5A). Iron levels varied across different populations as Ferro-Orange fluorescence intensity was higher in CD8^+ compared to CD4^+ T cells, pre- and post-activation (FIG. 5B). […] A major pathway for increasing cellular iron is the uptake of transferrin-bound iron, mediated by the transferrin receptor (TFR1), also known as CD71. […] In agreement with the observed differences in labile iron, CD8^+ T cells expressed higher levels of CD71 compared to CD4^+ T cells (FIG. 5F). […]

Assay [8] deals with aged T cells. As to the method:
as §3

Assay [9] deals with aged T cells. The settings on record: 24 hr post-activation.
Description: Functional assays and intracellular ferrous iron staining. Intracellular ferrous iron was measured using FerroOrange (Dojindo, F374). Following extracellular staining, cells were incubated with 1 μM of FerroOrange in HBSS at 37° C. for 30 minutes in a 5% CO2 incubator, and immediately taken for analysis. For Mitochondrial ferrous iron measurement, cells were incubated with 5 μM of Mito-FerroGreen (Dojindo, M489) in HBSS at 37° C. for 30 minutes in a 5% CO2 incubator, washed twice. […] All assays were analyzed by flow cytometry.
Assay [10] has as its system OVA-specific OTI and OTII T cells in aged recipients. Conditions: aged mice, OVA/Alum i.p., FAC i.v. on days 1 and 3, spleen on day 5. The protocol: Control mice were injected with saline. […] Control mice received saline.
The test system of assay [11] is T cells response to vaccination. The settings on record: cited from earlier work.
The mark [12] stands for this setting: young T cells activated 48 hr in the presence of SE.
Setting [13] is: young T cells activated 48 hr in the presence of heme.

“Also recorded” adds a separate entry of the source. Where two headings read alike, the source gives them in different places.

Consider `CC(=O)N(O)CCCCCNC(=O)CCC(=O)N(O)CCCCCNC(=O)CCC(=O)N(O)CCCCCN` [DFO], for which the cell viability entry in [1] (young T cells cultured with spleen extract plus DFO) is recorded as “partially rescued cell viability”.

Turning to `CC(=O)N[C@@H](CS)C(=O)O` [NAC, N-acetyl cysteine], the “aged T cells proliferation” value in assay [2] was “neither BSA nor NAC improved”. Also, the “aged T cells survival” value in assay [3] was “neither BSA nor NAC improved”. Moreover, the “viability of T cells” value in [1] (setting [12]) and in assay [1] (setting [13]) was “improved cell viability” in each case. Moreover, the proliferation result in [4] (setting [12]) and in assay [4] (setting [13]) was “improved” throughout.

Regarding `C=C[C@H]1C[N@@]2CC[C@H]1C[C@H]2[C@H](O)c1ccnc2ccc(OC)cc12` [Quinine, quinine], the “aged T cells proliferation” value in assay [2] was “rescued their proliferative capacity”. Also, the “labile iron pools (Ferro-Orange)” value in [5] (aged CD3+ T cells cultured with quinine (15 uM)) is “increases labile iron pools”.

Consider `COC(=O)c1ccc([C@@H]2c3[nH]c4ccccc4c3C[C@@H](C(=O)OC)N2C(=O)CCl)cc1` [RSL3], for which, in [6], the “cell viability after RSL (ferroptosis tolerance)” value is recorded as “aged T cells survived even high levels of the drug; also recorded: aged T cells are significantly more tolerant to ferroptosis than young T cells”. For the same compound, the “resistance to RSL3-induced ferroptosis” value in assay [7] was “more resistant to RSL3-induced ferroptosis”.

In the case of N-methyl protoporphyrin IX, the proliferation result in assay [2] (aged T cells supplemented with FAC plus FECH inhibitor) was “prevented the alleviating effect on proliferation”.

Take ferric ammonium citrate [FAC]: the “aged T cells proliferation” value in assay [2] is on record as “significant improvement in proliferative capacity”. Further, the CD71 expression result is “the shift in CD71 expression was smaller” in assay [8] (FAC-supplemented aged CD8+ T cells (not shown)) and “downregulation of CD71” in [8] (FAC-supplemented aged T cells). In addition, in assay [9], the mitochondrial iron pools entry is reported as “replenished mitochondrial iron pools”. Also, the “proliferation of antigen specific CD4+ T cells (OTII)” value in [10] was “improved proliferation”. Also, the “proliferation of antigen specific CD8+ T cells (OTI)” value in assay [10] is “not affected”. Also, the “T cells response to vaccination” value in assay [11] (hepcidin-treated mice, in vivo administration of FAC) is listed as “rescued”. Further, the “labile iron pools (FerroOrange)” value in assay [5] (aged T cells activated ex vivo in the presence of FAC) is listed as “increased labile iron pools”.

As for hepcidin, in [11] (mice treated with hepcidin), the “T cells response to vaccination” value is recorded as “diminished”.

For “holo-transferrin: iron saturated transferrin”, the “aged T cells proliferation” value in [2] is listed as “significant improvement in proliferative capacity”.
